Test system: citrus greasy spot
Test: Test for citrus greasy spot control
Assay type: in vivo
Conditions: treatment amounts as printed in 250 gallons of water per acre, untreated control 0.510
From the text: Test for citrus greasy spot control. Treatments consisted of the following amounts of compounds in 250 gallons of water per acre: […]

Substance: Copper
- Disease Incidence: 0.050

From patent publication US20030198696A1, “Pesticide composition of plant oils and fish oils” (priority 2000, published 2003)
